Data from patent US10669545B2, “Tumor cell malignant transformation suppressor and anti-tumor agent” (JAPAN SCIENCE AND TECHNOLOGY AGENCY, priority 2015, dated 2020).

Columns and labels:
Assay type in all cases: cell-based, human
[1] = tested on: stably Zic5 gene-expressed line (SK-MEL-28 cells); experiment: Transwell Migration Assay, stably Zic5 gene-expressed line; conditions: normalized to total viable cells; siNeg#1 set to 1
Protocol: Specifically, the stably Zic5 gene-expressed line and the stably Flag-expressed line were seeded in a 24-well plate into which an insert with 8-μm sized pores (manufactured by BD Biosciences) was put and were cultured in RPMI 1640 medium containing 10% FBS, and then the number of migrated cells was counted.
The influence of suppressing MLC2 phosphorylation on migration ability of cells was analyzed. Specifically, Transwell Migration Assay was performed in the same manner as above with the stably Zic5 gene-expressed line and the stably Flag-expressed line in a state of being treated or non-treated with a ROCK inhibitor (Y27632), and then the number of migrated cells was counted.
The number of migrated cells was normalized to a total number of viable cells. A relative cell number (n=3) in which the number of migrated cells transfected with siNeg#1 of each cell was set to 1 is shown in FIG. 29. The statistical difference was determined by the Tukey's multiple comparisons of means test (**: P<0.01, *: P<0.05).

A375 cells [2] = experiment: Cell cycle analysis (PI staining, flow cytometry), A375 cells; conditions: average value
Protocol: In cell cycle analysis, first, the cells were cultured in serum-free medium for 24 hours and then cultured in media containing 10% FBS for 24 hours. Next, the cells were fixed, stained with propidium iodide (PI), and then flow cytometry analysis (SH800, manufactured by Sony) was performed. The obtained data was analyzed using analysis software, FlowJo (manufactured by TOMY DIGITAL BIOLOGY, Tokyo, Japan). As a result, a sub-G1 population of cells increased in the cells in which Zic5 gene knockdown occurred.
Furthermore, a cell cycle of each cell was examined with respect to A375 cells. An average value (SD) of percentages (%) of cells in G1 population, S population, and G2M population of each cell is shown in Table 9. […] As a result, percentages of cells in the S population and G2M population of A375 cells were reduced by PDGFD gene knockdown.

A375 cells [3] = experiment: Cell morphology after siRNA transfection, A375 cells; conditions: not shown
SK-MEL-28 cells = experiment: Cell morphology after siRNA transfection, SK-MEL-28 cells; conditions: not shown
DU145 cells = experiment: Cell number count, DU145 cells; conditions: 0, 2, or 3 days after transfection
Description: First, DU145 cells were transfected with siZIC5#1, siZIC5#2, siNeg#1, or siNeg#2 described in Table 2 in the same manner as Example 1, and the number of cells 0, 2, or 3 days after transfection was counted. The result of calculating a relative cell number of each cell (the number of cells on 0th day after transfection (before transfection) was set to 1) (n=3) is shown in FIG. 44.
The result of calculating a relative cell number of each cell (the number of cells on 0th day after transfection (before transfection) was set to 1) (n=3) is shown in FIG. 47.

Substance: siPDGFD#1: siRNA for PDGFD gene; targeting sequence CAGGAATTACTCGGTCAATAT (SEQ. NO. 28) (listed as DNA, chemistry not given here)
- increase in the number of migrated cells by Zic5 gene overexpression [1]: completely suppressed
- percentage of cells in G1 population (A375 cells [2]): 71.6%
- percentage of cells in G2M population (A375 cells [2]): 18.6%
- percentage of cells in S population (A375 cells [2]): 8.1%
- morphological change of cells after siRNA transfection (A375 cells [3]): morphological change occurred
- morphological change of cells after siRNA transfection (SK-MEL-28 cells): morphological change occurred
- relative cell number (0th day set to 1), cell proliferation rate (DU145 cells): decreased
